Experiments:
[1] = Inhibition of PKA
[2] = Inhibition of ROCK by enzyme-coupled luciferase-kinase assay
[3] = Selectivity ratio of IC50 for PKA to IC50 to ROCK
Cytochrome P450 2D6 = Cytochrome P450 2D6 (Homo sapiens, UniProt P10635); assay: Inhibition of CYP2D6; format: ADME
Cytochrome P450 3A4 = Cytochrome P450 3A4 (Homo sapiens, UniProt P08684); assay: Inhibition of CYP3A4; format: ADME
Cytochrome P450 1A2 = target: T1, Cytochrome P450 1A2 (Homo sapiens, UniProt P05177); assay: Inhibition of CYP1A2; format: ADME
T1 sequence (P05177 whole entry): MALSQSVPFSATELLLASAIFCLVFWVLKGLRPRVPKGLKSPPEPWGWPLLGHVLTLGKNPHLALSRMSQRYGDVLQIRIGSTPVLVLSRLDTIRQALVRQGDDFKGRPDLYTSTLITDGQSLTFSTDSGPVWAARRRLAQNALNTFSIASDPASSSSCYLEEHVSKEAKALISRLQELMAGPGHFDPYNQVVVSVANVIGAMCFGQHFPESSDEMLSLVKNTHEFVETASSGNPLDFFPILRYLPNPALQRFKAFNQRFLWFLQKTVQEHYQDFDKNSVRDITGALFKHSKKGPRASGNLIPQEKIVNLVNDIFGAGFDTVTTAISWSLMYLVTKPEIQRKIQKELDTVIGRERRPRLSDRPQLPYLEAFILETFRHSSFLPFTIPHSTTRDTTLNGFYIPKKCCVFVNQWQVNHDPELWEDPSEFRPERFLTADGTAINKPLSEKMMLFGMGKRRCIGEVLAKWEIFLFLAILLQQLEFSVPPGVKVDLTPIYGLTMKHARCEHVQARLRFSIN

Cytochrome P450 2C9 = Cytochrome P450 2C9 (Homo sapiens, UniProt P11712); assay: Inhibition of CYP2C9; format: ADME
Sequence of Cytochrome P450 2C9 (P11712 whole entry): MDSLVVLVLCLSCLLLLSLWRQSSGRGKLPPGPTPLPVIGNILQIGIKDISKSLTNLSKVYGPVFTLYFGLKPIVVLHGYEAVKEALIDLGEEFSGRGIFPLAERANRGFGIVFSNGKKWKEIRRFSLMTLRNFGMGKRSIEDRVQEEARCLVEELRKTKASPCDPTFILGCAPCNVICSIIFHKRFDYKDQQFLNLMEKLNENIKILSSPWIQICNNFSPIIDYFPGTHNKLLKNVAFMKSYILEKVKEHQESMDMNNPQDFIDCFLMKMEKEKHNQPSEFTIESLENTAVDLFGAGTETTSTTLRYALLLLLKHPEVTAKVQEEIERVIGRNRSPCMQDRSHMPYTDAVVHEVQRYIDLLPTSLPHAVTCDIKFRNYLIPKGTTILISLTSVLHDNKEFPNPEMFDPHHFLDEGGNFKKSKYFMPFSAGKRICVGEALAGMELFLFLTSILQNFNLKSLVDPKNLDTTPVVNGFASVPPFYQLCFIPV

[4] = Oral bioavailability in rat at 2 mg/kg; format: ADME, organism-based; settings: in vivo
[5] = Half life in rat at 2 mg/kg, po or 1 mg/kg, iv; format: ADME, organism-based; settings: in vivo
[6] = Cmax in rat at 2 mg/kg, po; format: ADME, organism-based; design: dose 2 mg/kg, route oral; settings: in vivo
[7] = Half life in human liver microsomes; format: ADME, Microsome
[8] = Inhibition of ROCK by myosin light chain phosphorylation assay
Rattus norvegicus = assay: AUC in rat at 2 mg/kg, po; format: ADME, organism-based, Plasma; design: dose 2 mg/kg, route oral; settings: in vivo
[9] = Clearance in rat at 2 mg/kg, po or 1 mg/kg, iv; format: ADME, organism-based; settings: in vivo
[10] = Volume of distribution at steady state in rat at 2 mg/kg, po or 1 mg/kg, iv; format: ADME, organism-based; settings: in vivo, read-out: Vdss

Sequence of Cytochrome P450 2D6 (P10635 whole entry): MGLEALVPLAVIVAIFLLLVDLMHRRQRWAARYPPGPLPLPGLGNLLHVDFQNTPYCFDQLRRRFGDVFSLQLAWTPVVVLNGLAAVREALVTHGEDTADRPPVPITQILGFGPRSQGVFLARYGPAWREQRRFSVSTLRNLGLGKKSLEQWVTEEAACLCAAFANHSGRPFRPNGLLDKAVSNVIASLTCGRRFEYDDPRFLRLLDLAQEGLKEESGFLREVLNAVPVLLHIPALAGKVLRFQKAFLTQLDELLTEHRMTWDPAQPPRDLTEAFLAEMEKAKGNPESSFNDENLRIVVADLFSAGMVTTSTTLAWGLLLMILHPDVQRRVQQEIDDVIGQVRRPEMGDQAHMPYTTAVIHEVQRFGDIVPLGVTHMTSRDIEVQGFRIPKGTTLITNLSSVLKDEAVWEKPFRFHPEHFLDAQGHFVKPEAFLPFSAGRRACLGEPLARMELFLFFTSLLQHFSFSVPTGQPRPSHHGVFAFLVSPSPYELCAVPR
Sequence of Cytochrome P450 3A4 (P08684 whole entry): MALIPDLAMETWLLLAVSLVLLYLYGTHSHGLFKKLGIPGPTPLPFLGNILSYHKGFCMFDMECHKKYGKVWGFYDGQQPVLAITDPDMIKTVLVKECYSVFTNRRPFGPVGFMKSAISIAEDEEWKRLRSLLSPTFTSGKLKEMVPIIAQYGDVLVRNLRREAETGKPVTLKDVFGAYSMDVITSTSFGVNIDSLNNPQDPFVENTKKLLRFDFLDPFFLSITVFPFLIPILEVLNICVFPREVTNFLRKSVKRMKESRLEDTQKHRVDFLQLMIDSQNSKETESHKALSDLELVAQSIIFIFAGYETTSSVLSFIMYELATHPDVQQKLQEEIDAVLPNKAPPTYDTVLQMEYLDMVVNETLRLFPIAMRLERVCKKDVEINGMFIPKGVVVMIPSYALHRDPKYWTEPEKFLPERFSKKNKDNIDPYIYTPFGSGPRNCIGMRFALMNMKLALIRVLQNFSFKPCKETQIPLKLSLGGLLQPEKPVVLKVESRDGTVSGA

| IC50 [1] [nM] | IC50 [2] [nM] | Ratio IC50 [3] | Activity (Cytochrome P450 2D6) | Activity (Cytochrome P450 3A4) | Activity (Cytochrome P450 1A2) | Activity (Cytochrome P450 2C9) | bioavailability [4] [%] | half-life [5] [h] | Cmax [6] [nM] | half-life [7] [h] | IC50 [8] [nM] | AUC (Rattus norvegicus) [µM·h] | clearance [9] [mL/min/kg] | Vd [10] [L/kg] | SMILES |
| --- | --- | --- | --- | --- | --- | --- | --- | --- | --- | --- | --- | --- | --- | --- | --- |
| 78 | < 1 | 78 |  |  |  |  |  |  |  |  |  |  |  |  | Nc1nccc(-c2ccc3nc(C4COc5ccc(C(=O)NCc6ccccc6)cc5C4)[nH]c3c2)n1 (centres undefined) |
| > 20000 | 440 | > 45 | Active | Active | Active | Active |  |  |  |  |  |  |  |  | COc1ccc2c(c1)CC(c1nc3c(OCCN(C)C)cc(-c4ccncc4)cc3[nH]1)CO2 (centres undefined) |
| 3130 | 1780 | 2 | Active | Active | Active | Active |  |  |  |  |  |  |  |  | Cn1c(C2COc3ccccc3O2)nc2cc(-c3ccncc3)ccc21 (centres undefined) |
| 8810 | 680 | 13 | Active | Active | Active | Active |  |  |  |  |  |  |  |  | c1ccc(CCn2c(C3COc4ccccc4O3)nc3ccc(-c4ccncc4)cc32)cc1 (centres undefined) |
| 20 | 1.1 | 18 |  |  |  |  |  |  |  |  |  |  |  |  | Nc1nccc(-c2ccc3nc(C4COc5ccc(C(=O)NC6CCCCC6)cc5C4)[nH]c3c2)n1 (centres undefined) |
| 272 | 1.2 | 227 |  |  |  |  | < 1 | 3 | 3 | 1.67 | 2700 | 0.01 | 27 | 4.6 | CN(C)CCCNC(=O)c1ccc2c(c1)CC(c1nc3ccc(-c4ccnc(N)n4)cc3[nH]1)CO2 (centres undefined) |
| 6120 | 130 | 47 | Active | Active | Active | Active |  |  |  |  |  |  |  |  | c1ccc2c(c1)OCC(c1nc3ccc(-c4ccncc4)cc3n1CCN1CCOCC1)O2 (centres undefined) |
| 850 | 24 | 35 | Active | Active | Active | Active |  |  |  |  |  |  |  |  | c1ccc2c(c1)OCC(c1nc3ccc(-c4ccncc4)cc3n1CC1CC1)O2 (centres undefined) |
| 355 | 7.5 | 47 | Active | Active | Active | Active |  |  |  |  |  |  |  |  | c1ccc2c(c1)OCC(c1nc3ccc(-c4ccncc4)cc3[nH]1)O2 (centres undefined) |
| 485 | 1.7 | 285 |  |  |  |  |  |  |  |  | 85 | 1.9 |  |  | COc1ccc2c(c1)CC(c1nc3ccc(-c4ccnc(N)n4)cc3[nH]1)CO2 (centres undefined) |
| 195 | 8 | 24 |  |  |  |  |  |  |  |  |  |  |  |  | Nc1nccc(-c2ccc3nc(C4COc5ccccc5C4)[nH]c3c2)n1 (centres undefined) |
| 442 | 0.25 | 1770 |  |  |  |  | 6 | 3.6 | 5 | 0.025 | 250 | 0.08 | 58 | 5.9 | Nc1nccc(-c2ccc3nc(C4COc5ccc(C(=O)NCCc6cccnc6)cc5C4)[nH]c3c2)n1 (centres undefined) |
| 305 | 0.43 | 709 |  |  |  |  |  |  |  |  |  |  |  |  | Nc1nccc(-c2ccc3nc(C4COc5ccc(C(=O)NCCc6ccccn6)cc5C4)[nH]c3c2)n1 (centres undefined) |
| 1960 | 15 | 131 | Active | Active | Active | Active |  |  |  |  |  |  |  |  | Cn1c(C2COc3ccccc3O2)nc2ccc(-c3ccncc3)cc21 (centres undefined) |
| 700 | 1.7 | 412 |  |  |  |  |  |  |  |  |  |  |  |  | Nc1nccc(-c2ccc3nc(C4COc5ccc(C(=O)NCCc6ccccc6)cc5C4)[nH]c3c2)n1 (centres undefined) |
| 435 | 95 | 4.6 |  |  |  |  |  |  |  |  |  |  |  |  | COc1ccc2c(c1)OCC(c1nc3ccc(-c4ccnc(N)n4)cc3[nH]1)C2 (centres undefined) |

| IC50 [1] [nM] | IC50 [2] [nM] | Ratio IC50 [3] | Activity (Cytochrome P450 2D6) | Activity (Cytochrome P450 3A4) | Activity (Cytochrome P450 1A2) | Activity (Cytochrome P450 2C9) | bioavailability [4] [%] | half-life [5] [h] | Cmax [6] [nM] | half-life [7] [h] | IC50 [8] [nM] | AUC (Rattus norvegicus) [µM·h] | clearance [9] [mL/min/kg] | Vd [10] [L/kg] | SMILES |
| --- | --- | --- | --- | --- | --- | --- | --- | --- | --- | --- | --- | --- | --- | --- | --- |
| 232 | 256 | 0.9 |  |  |  |  |  |  |  |  |  |  |  |  | COc1cccc2c1OCC(c1nc3ccc(-c4ccnc(N)n4)cc3[nH]1)C2 (centres undefined) |
| 509 | 27 | 19 | Active | Active | Active | Active |  |  |  |  |  |  |  |  | c1ccc2c(c1)OCC(c1nc3ccc(-c4ccncc4)cc3n1C1CCOCC1)O2 (centres undefined) |
| > 20000 | > 20000 |  | Active | Active | Active | Active |  |  |  |  |  |  |  |  | Cc1c(-c2ccncc2)cc2[nH]c(C3COc4ccccc4O3)nc2c1C (centres undefined) |
| 370 | 2.8 | 132 |  |  |  |  |  |  |  |  |  |  |  |  | Nc1nccc(-c2ccc3nc(C4COc5ccc(C(=O)NCCO)cc5C4)[nH]c3c2)n1 (centres undefined) |
| 82 | 0.78 | 105 |  |  |  |  |  |  |  |  |  |  |  |  | Nc1nccc(-c2ccc3nc(C4COc5ccc(C(=O)NCc6cccnc6)cc5C4)[nH]c3c2)n1 (centres undefined) |
| 1730 | 129 | 13 |  |  |  |  |  |  |  |  |  |  |  |  | CN(C)C(=O)c1ccc2c(c1)CC(c1nc3ccc(-c4ccnc(N)n4)cc3[nH]1)CO2 (centres undefined) |
| 310 | 25 | 12 |  |  |  |  |  |  |  |  |  |  |  |  | COc1cccc2c1CC(c1nc3ccc(-c4ccnc(N)n4)cc3[nH]1)CO2 (centres undefined) |
| 252 | 1.7 | 148 | Active | Active | Active | Active |  |  |  |  |  |  |  |  | c1ccc2c(c1)CC(c1nc3ccc(-c4ccncc4)cc3[nH]1)CO2 (centres undefined) |
| 1000 | 190 | 5 | Active | Active | Active | Active |  |  |  |  |  |  |  |  | c1ccc(Cn2c(C3COc4ccccc4O3)nc3ccc(-c4ccncc4)cc32)cc1 (centres undefined) |
| 1590 | 183 | 9 | Active | Active | Active | Active |  |  |  |  |  |  |  |  | COc1ccc2c(c1)CC(c1nc3c(OCCCO)cc(-c4ccncc4)cc3[nH]1)CO2 (centres undefined) |
| 187 | 4.1 | 46 | Active | Active | Active | Active |  |  |  |  |  |  |  |  | COc1c(-c2ccncc2)ccc2nc(C3COc4ccccc4C3)[nH]c12 (centres undefined) |
| 328 | 1.5 | 219 |  |  |  |  |  |  |  |  |  |  |  |  | CN(C)CCNC(=O)c1ccc2c(c1)CC(c1nc3ccc(-c4ccnc(N)n4)cc3[nH]1)CO2 (centres undefined) |
| 310 | 11 | 28 | Active | Active | Active | Active |  |  |  |  |  |  |  |  | COCCn1c(C2COc3ccccc3O2)nc2ccc(-c3ccncc3)cc21 (centres undefined) |
| 1380 | 240 | 6 | Active | Active | Active | Active |  |  |  |  |  |  |  |  | Cc1cc(-c2ccncc2)cc2[nH]c(C3COc4ccccc4O3)nc12 (centres undefined) |
| 3080 | 2970 | 1 | Active | Active | Active | Active |  |  |  |  |  |  |  |  | FC(F)(F)c1cc2nc(C3COc4ccccc4O3)[nH]c2cc1-c1ccncc1 (centres undefined) |
